{"source": "ChEMBL document CHEMBL2413063", "about": "“Neuroactive diol and acyloin metabolites from cone snail-associated bacteria” (Bioorg Med Chem Lett, 2013)", "key": {"[1]": {"test_system": "DRG neuron", "experiment": "Neuronal activity in mouse DRG neurons assessed as amplification of KCl pulse-induced intracellular calcium transient at 73 uM by fluorescence microscopic analysis", "type": "functional, cell-based"}, "[2]": {"test_system": "DRG neuron", "experiment": "Neuronal activity in mouse DRG neurons assessed as amplification of KCl pulse-induced intracellular calcium transient at 90 uM by fluorescence microscopic analysis", "type": "functional, cell-based"}, "[3]": {"molecular_target": "Sodium-dependent dopamine transporter (Homo sapiens) (UniProt Q01959)", "sequence (Q01959 whole entry)": "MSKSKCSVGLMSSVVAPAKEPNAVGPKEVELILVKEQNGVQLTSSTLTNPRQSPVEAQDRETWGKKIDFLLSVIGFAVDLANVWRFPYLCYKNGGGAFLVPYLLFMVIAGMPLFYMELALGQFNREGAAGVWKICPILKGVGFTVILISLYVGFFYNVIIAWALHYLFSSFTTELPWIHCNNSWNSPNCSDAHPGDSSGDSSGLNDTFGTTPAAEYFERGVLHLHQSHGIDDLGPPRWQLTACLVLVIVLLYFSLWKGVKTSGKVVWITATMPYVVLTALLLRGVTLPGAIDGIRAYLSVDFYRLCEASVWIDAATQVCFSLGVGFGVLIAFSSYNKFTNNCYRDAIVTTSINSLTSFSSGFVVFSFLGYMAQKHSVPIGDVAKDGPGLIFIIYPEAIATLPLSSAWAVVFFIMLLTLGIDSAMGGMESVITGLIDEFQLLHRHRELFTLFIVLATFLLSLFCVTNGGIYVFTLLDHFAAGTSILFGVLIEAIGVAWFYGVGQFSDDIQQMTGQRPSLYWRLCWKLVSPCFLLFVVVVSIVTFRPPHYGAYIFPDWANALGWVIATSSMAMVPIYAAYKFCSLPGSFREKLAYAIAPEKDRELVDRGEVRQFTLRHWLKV", "experiment": "Binding affinity to dopamine transporter (unknown origin) at 10 uM by ligand displacement assay"}, "[4]": {"molecular_target": "Sodium-dependent noradrenaline transporter (Homo sapiens, UniProt P23975)", "sequence (P23975 whole entry)": "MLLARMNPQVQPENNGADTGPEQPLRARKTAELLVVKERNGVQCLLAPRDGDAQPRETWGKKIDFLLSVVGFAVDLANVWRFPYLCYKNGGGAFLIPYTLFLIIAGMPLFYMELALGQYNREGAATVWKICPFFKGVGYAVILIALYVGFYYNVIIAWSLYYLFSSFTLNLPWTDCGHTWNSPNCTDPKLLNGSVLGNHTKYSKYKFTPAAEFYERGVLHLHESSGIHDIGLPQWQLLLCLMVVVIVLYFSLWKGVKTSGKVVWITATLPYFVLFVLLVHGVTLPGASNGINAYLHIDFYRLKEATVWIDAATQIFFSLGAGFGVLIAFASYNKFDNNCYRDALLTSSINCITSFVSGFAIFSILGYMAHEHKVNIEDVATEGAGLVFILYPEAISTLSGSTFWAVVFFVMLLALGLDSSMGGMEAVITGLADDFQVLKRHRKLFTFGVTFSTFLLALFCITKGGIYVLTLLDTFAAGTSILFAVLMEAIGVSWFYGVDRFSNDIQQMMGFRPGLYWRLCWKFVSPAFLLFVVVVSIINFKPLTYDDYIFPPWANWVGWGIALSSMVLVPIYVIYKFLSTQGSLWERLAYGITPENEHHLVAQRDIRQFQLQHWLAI", "experiment": "Binding affinity to human norepinephrine transporter by ligand displacement assay"}, "[5]": {"molecular_target": "Sodium-dependent serotonin transporter (Homo sapiens) (UniProt P31645)", "sequence (P31645 whole entry, looked up)": "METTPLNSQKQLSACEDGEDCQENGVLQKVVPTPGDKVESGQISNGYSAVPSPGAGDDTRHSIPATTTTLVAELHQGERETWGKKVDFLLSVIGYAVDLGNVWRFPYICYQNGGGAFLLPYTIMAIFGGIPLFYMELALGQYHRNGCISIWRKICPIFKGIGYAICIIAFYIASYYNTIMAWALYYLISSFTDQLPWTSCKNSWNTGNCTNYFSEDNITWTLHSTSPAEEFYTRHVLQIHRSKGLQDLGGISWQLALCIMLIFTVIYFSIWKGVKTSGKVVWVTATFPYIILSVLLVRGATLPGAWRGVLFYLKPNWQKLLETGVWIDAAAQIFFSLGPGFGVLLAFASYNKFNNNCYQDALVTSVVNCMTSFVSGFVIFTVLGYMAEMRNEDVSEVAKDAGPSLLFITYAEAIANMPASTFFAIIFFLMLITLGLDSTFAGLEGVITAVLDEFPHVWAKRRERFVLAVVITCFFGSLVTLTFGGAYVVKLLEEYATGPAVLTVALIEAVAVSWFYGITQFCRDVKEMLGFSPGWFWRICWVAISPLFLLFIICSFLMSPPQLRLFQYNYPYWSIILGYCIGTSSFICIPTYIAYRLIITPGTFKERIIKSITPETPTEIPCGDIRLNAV", "experiment": "Binding affinity to serotonin transporter (unknown origin) at 10 uM by ligand displacement assay"}}, "note": "Active and inactive are the calls of the source. The calls are words filed in the database; no cut-off is given here.", "data": [{"smiles": "O=C(Cc1ccc(O)cc1)C(O)Cc1ccc(O)cc1", "note": "(stereo unspecified)", "values": [{"measurement": "Activity", "setting": "[1]", "value": "Active"}]}, {"smiles": "CC(C)CC(=O)C(O)Cc1ccc(O)cc1", "note": "(stereo unspecified)", "values": [{"measurement": "Activity", "setting": "[2]", "value": "inactive"}]}, {"smiles": "O=C(Cc1c[nH]c2ccccc12)C(O)Cc1ccc(O)cc1", "note": "(stereo unspecified)", "values": [{"measurement": "inhibition", "setting": "[3]", "value": "inactive"}, {"measurement": "Ki", "setting": "[4]", "value": 867, "unit": "nM"}, {"measurement": "inhibition", "setting": "[5]", "value": "inactive"}]}, {"smiles": "CC(C)CC(O)C(=O)Cc1ccc(O)cc1", "note": "(stereo unspecified)", "values": [{"measurement": "Activity", "setting": "[2]", "value": "inactive"}]}]}
